The source made the active and inactive calls.
What was measured:
[1] = tested on: Streptococcus sp. 'group A'; experiment: growth inhibition of control SK(-) GAS strain, dose response, counter-screen for streptokinase expression inhibitor project, luminescence, kanamycin, BacTiterGlo, confirmation (AID 1900); assay type: functional, organism-based
Streptokinase A = target: T1, Streptokinase A (Streptococcus pyogenes serotype M1, UniProt P10520); experiment: S. pyogenes streptokinase expression inhibitors, potency, dose response, plasminogen activation absorbance, OD405 (AID 1914); assay type: functional, Streptococcus pyogenes M1 GAS;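 also: secreted streptokinase activity via plasminogen activation per viability signal from cell pellet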
T1 sequence (P10520 whole entry): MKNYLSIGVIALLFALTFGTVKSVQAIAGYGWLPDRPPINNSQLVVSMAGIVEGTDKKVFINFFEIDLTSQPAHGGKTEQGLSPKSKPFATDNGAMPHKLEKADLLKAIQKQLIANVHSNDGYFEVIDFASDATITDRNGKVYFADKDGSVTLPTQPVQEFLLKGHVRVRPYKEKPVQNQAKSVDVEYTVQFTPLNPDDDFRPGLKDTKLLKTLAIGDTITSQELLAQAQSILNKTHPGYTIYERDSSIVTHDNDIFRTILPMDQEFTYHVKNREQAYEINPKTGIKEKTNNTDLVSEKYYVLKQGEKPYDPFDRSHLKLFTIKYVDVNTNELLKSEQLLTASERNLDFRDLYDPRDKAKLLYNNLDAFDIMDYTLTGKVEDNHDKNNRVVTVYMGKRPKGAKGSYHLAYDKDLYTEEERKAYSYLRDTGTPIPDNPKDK

[2] = cytotoxicity in HPDE-C7 cells, cell-based, fluorescence, HTS (AID 430); assay type: functional; conditions: Homo sapiens
[3] = cytotoxicity in KRAS-transformed pancreatic duct cells, primary screen, cell-based, fluorescence, HTS (AID 431); assay type: functional; conditions: Homo sapiens;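 also: cell line used: HPDE-C7K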
Streptococcus = experiment: Group A Streptococcus viability loss, dose response, counter-screen for streptokinase expression inhibitor project, luminescence, BacTiterGlo (AID 1915); assay type: functional, organism-based;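 also: potency for reduction of bacterial viability or growth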
[4] = target: DNA damage-inducible transcript 3 protein (Mus musculus, UniProt P35639); assay type: functional, Cricetulus griseus
Beta-galactosidase = Beta-galactosidase (Escherichia coli, UniProt Q8VNN2); experiment: Dose response counterscreen for EBI2 assay utilizing the enzyme, b-galactosidase.; assay type: functional
[5] = target: Intestinal-type alkaline phosphatase (Homo sapiens, UniProt P09923); experiment: human intestinal alkaline phosphatase activators, dose response, biochemical, luminescence, uHTS hits (AID 463120); assay type: functional
[6] = target: T2, High affinity choline transporter 1 (Homo sapiens, UniProt Q9GZV3); experiment: CHT inhibitors, dose response, cell-based, 5-point CRC, membrane potential dye (AID 504840); assay type: functional
T2 sequence (Q9GZV3 whole entry): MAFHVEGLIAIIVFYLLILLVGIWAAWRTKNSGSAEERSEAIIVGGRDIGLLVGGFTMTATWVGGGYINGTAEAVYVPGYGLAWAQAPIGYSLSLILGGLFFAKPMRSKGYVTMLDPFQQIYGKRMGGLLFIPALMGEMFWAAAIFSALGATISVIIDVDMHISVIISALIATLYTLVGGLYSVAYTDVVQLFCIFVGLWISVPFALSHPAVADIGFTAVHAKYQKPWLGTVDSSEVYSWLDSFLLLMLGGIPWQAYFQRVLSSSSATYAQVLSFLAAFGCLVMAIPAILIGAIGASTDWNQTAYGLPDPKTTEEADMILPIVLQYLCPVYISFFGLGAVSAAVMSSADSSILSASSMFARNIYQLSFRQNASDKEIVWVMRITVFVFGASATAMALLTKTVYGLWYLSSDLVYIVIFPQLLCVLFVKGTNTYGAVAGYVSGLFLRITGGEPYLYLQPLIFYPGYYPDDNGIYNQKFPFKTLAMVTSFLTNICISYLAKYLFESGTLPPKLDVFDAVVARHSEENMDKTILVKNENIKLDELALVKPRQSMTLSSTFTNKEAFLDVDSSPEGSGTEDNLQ

Ion channel NompC = Ion channel NompC (Danio rerio, UniProt Q7T1G6); experiment: Dose response cell-based high-throughput screening assay for agonists of the transient receptor potential channel N1 (TRPN1). [Related pubchem assays (depositor defined):AID1424, AID1448]; assay type: functional
Mucolipin-3 = target: T3, Mucolipin-3 (Homo sapiens, UniProt Q8TDD5); experiment: Fluorescence counterscreen assay for […] agonists: dose response cell-based high-throughput screening assay to identify agonists of the transient receptor potential channel ML3 (TRPML3). [Related pubchem assays: 1424, 1448 ]; assay type: functional
T3 sequence (Q8TDD5 whole entry): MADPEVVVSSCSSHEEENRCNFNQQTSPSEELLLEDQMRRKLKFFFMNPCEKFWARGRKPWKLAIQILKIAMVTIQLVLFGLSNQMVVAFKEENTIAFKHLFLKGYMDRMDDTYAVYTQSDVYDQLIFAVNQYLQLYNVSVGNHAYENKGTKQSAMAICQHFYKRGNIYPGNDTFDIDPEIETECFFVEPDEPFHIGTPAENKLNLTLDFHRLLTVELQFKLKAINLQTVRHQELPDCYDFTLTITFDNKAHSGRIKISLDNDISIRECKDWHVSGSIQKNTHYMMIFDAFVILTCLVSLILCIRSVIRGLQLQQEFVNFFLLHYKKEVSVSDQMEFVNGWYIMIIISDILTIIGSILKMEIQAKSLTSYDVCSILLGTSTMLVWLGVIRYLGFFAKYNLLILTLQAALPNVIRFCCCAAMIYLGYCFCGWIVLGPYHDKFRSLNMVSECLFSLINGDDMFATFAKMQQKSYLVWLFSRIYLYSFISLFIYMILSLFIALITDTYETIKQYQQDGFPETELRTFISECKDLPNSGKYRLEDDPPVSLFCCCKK

Bcl-2-related protein A1 = target: T4, Bcl-2-related protein A1 (Mus musculus, UniProt Q07440); assay type: functional;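 also: confirmatory dose–response counterscreen on Bfl-1, used to check hits from a UBC13 polyubiquitin inhibitor campaign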
T4 sequence (Q07440 whole entry): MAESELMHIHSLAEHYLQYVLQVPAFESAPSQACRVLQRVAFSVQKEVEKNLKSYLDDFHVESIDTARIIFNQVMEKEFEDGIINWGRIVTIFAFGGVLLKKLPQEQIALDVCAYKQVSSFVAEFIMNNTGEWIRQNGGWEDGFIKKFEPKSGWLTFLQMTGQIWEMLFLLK

[7] = target: T5, Ubiquitin-conjugating enzyme E2 N (Homo sapiens, UniProt P61088); assay type: functional
T5 sequence (P61088 whole entry): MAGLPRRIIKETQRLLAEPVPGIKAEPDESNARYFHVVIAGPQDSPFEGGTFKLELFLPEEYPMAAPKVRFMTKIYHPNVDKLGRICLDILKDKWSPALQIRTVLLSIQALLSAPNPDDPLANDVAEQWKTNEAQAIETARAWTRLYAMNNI

[8] = target: T5, Ubiquitin-conjugating enzyme E2 N; assay type: functional; remark: listed apart in the source
[9] = target: T6, G-protein coupled receptor 35 (Homo sapiens, UniProt Q9HC97); experiment: SAR analysis of Agonists of the GPR35 Receptor using an Image-Based Assay - Set 4. [Related pubchem assays (depositor defined):AID2013, AID2026]; assay type: functional
Cannabinoid receptor 1 [10] = target: T7, Cannabinoid receptor 1 (Homo sapiens, UniProt P21554); experiment: SAR analysis of agonists of the Cannabinoid Receptor 1 using an Image-Based Assay - Set 4. [Related pubchem assays (depositor defined):AID2013, AID2026]; assay type: functional
[11] = target: T6, G-protein coupled receptor 35; experiment: SAR analysis of Antagonists of the GPR35 Receptor using an Image-Based Assay - Set 6. [Related pubchem assays (depositor defined):AID2013, AID2026]; assay type: functional
Cannabinoid receptor 1 [12] = target: T7, Cannabinoid receptor 1; experiment: SAR analysis of antagonists of the Cannabinoid Receptor 1 using an Image-Based Assay - Set 4. [Related pubchem assays (depositor defined):AID2013, AID2026]; assay type: functional
[13] = target: G-protein coupled receptor 55 (Homo sapiens, UniProt Q9Y2T6); experiment: SAR Analysis of Selective Antagonists of GPR55 using an Image-Based Assay - Set 4. [Related pubchem assays (depositor defined):AID2013, AID2026]; assay type: functional;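 also: antagonism of response to 5 µM lysophosphatidylinositol agonist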
Cannabinoid receptor 2 [14] = target: T8, Cannabinoid receptor 2 (Homo sapiens, UniProt P34972); experiment: SAR analysis of antagonists of the Cannabinoid Receptor 2 using an Image-Based Assay - Set 3. [Related pubchem assays (depositor defined):AID2013, AID2026]; assay type: functional
Cannabinoid receptor 2 [15] = target: T8, Cannabinoid receptor 2; experiment: SAR analysis of agonists of the Cannabinoid Receptor 2 using an Image-Based Assay - Set 3. [Related pubchem assays (depositor defined):AID2013, AID2026]; assay type: functional
[16] = target: Protein phosphatase methylesterase 1 (Homo sapiens, UniProt Q9Y570); experiment: PME-1 inhibitors by competitive ABPP, late-stage follow-up, gel-based ABPP, IC50, set 1 (AID 463130); assay type: functional
Fatty acid synthase [17] = target: T9, Fatty acid synthase (Homo sapiens, UniProt P49327); experiment: FAS thioesterase domain inhibitors, dose response, biochemical, endpoint fluorescence intensity, uHTS hits (AID 624327); assay type: functional;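 also: fluorescence from hydrolysis of an O-methyl fluorescein acyl ester substrate by the enzyme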
Fatty acid synthase [18] = target: T9, Fatty acid synthase; experiment: FAS thioesterase domain inhibitors, dose response, biochemical, kinetic fluorescence intensity (AID 624326); assay type: functional;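 also: rate of fluorescence rise from hydrolysis of a fluorogenic O-methyl fluorescein ester substrate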
Aminopeptidase N = target: T10, Aminopeptidase N (Plasmodium falciparum FcB1/Columbia, UniProt O96935); experiment: P. falciparum M1AAP inhibitors, biochemical, fluorogenic H-Leu-NHMec substrate, 1536-well (AID 1445); design: species or system Plasmodium falciparum 3D7, 3D7
T10 sequence (O96935 whole entry): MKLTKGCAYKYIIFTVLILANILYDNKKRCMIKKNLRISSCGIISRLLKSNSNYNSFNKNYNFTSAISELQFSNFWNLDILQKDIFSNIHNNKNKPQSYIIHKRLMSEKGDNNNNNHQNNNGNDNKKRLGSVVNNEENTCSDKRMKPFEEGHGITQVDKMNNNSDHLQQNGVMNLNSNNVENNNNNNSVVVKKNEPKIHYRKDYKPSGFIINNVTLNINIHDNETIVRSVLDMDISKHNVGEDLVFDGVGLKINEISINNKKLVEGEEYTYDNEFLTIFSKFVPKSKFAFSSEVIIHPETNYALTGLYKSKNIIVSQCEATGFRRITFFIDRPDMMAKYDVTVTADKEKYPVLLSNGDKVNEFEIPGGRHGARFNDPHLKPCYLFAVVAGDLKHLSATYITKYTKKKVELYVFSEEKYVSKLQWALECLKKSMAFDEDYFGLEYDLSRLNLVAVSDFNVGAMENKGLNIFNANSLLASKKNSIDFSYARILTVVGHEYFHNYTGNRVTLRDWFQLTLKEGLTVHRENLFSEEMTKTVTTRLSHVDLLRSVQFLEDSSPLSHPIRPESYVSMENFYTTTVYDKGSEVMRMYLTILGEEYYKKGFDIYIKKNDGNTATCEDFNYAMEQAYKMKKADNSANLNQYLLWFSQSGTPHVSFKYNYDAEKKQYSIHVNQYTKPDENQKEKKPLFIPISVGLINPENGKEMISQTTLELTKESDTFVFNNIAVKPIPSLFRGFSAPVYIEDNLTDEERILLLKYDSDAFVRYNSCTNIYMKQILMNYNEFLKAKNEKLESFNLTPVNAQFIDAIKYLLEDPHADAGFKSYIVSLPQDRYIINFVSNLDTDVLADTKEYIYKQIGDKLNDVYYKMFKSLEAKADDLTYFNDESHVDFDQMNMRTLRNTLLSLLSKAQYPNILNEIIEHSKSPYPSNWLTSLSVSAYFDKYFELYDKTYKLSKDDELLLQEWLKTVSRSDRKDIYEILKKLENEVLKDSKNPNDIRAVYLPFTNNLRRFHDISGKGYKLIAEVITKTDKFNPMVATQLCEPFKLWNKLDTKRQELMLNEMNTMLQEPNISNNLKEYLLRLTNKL

[19] = target: T11, Runt-related transcription factor 1/Core-binding factor subunit beta (Homo sapiens, UniProt Q01196+Q13951); experiment: inhibitors of RUNX1 Runt–CBFb-SMMHC binding, primary screen, biochemical, FRET, Cerulean-Runt, Venus-CBFb-SMMHC, uHTS (AID 1434); assay type: protein assay;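 also: partner is the CBFb-SMMHC leukemia fusion protein rather than wild-type CBFb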
[20] = target: T11, Runt-related transcription factor 1/Core-binding factor subunit beta; experiment: inhibitors of RUNX1 Runt–CBFb-SMMHC binding, biochemical, TR-FRET (AID 1438); assay type: protein assay
Coagulation factor XII = Coagulation factor XII (Homo sapiens, UniProt P00748); assay type: functional;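 also: activated factor XIIa alpha cleaving a fluorogenic AMC peptide substrate; inhibitor potency from loss of enzyme activity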
Sequence of Coagulation factor XII (P00748 20-372 limits assumed): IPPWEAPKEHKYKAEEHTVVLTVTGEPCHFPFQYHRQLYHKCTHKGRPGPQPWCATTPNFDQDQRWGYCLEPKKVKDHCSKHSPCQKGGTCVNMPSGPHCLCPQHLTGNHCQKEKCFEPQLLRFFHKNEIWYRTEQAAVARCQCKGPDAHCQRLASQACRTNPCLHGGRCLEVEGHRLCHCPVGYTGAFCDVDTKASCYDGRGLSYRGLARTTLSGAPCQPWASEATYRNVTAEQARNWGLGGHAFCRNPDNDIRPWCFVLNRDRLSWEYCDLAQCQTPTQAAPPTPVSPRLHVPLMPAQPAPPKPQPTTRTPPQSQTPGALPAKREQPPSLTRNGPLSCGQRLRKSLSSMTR
Sequence of Coagulation factor XII (P00748 373-615 limits assumed): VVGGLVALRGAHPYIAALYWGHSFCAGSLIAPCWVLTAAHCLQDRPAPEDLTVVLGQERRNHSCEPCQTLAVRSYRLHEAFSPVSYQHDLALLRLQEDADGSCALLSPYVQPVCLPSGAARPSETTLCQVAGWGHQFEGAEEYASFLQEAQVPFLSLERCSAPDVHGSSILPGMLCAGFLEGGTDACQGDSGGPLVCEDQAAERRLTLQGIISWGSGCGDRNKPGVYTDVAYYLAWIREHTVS

T9 sequence (P49327 whole entry, the tested form may be a part): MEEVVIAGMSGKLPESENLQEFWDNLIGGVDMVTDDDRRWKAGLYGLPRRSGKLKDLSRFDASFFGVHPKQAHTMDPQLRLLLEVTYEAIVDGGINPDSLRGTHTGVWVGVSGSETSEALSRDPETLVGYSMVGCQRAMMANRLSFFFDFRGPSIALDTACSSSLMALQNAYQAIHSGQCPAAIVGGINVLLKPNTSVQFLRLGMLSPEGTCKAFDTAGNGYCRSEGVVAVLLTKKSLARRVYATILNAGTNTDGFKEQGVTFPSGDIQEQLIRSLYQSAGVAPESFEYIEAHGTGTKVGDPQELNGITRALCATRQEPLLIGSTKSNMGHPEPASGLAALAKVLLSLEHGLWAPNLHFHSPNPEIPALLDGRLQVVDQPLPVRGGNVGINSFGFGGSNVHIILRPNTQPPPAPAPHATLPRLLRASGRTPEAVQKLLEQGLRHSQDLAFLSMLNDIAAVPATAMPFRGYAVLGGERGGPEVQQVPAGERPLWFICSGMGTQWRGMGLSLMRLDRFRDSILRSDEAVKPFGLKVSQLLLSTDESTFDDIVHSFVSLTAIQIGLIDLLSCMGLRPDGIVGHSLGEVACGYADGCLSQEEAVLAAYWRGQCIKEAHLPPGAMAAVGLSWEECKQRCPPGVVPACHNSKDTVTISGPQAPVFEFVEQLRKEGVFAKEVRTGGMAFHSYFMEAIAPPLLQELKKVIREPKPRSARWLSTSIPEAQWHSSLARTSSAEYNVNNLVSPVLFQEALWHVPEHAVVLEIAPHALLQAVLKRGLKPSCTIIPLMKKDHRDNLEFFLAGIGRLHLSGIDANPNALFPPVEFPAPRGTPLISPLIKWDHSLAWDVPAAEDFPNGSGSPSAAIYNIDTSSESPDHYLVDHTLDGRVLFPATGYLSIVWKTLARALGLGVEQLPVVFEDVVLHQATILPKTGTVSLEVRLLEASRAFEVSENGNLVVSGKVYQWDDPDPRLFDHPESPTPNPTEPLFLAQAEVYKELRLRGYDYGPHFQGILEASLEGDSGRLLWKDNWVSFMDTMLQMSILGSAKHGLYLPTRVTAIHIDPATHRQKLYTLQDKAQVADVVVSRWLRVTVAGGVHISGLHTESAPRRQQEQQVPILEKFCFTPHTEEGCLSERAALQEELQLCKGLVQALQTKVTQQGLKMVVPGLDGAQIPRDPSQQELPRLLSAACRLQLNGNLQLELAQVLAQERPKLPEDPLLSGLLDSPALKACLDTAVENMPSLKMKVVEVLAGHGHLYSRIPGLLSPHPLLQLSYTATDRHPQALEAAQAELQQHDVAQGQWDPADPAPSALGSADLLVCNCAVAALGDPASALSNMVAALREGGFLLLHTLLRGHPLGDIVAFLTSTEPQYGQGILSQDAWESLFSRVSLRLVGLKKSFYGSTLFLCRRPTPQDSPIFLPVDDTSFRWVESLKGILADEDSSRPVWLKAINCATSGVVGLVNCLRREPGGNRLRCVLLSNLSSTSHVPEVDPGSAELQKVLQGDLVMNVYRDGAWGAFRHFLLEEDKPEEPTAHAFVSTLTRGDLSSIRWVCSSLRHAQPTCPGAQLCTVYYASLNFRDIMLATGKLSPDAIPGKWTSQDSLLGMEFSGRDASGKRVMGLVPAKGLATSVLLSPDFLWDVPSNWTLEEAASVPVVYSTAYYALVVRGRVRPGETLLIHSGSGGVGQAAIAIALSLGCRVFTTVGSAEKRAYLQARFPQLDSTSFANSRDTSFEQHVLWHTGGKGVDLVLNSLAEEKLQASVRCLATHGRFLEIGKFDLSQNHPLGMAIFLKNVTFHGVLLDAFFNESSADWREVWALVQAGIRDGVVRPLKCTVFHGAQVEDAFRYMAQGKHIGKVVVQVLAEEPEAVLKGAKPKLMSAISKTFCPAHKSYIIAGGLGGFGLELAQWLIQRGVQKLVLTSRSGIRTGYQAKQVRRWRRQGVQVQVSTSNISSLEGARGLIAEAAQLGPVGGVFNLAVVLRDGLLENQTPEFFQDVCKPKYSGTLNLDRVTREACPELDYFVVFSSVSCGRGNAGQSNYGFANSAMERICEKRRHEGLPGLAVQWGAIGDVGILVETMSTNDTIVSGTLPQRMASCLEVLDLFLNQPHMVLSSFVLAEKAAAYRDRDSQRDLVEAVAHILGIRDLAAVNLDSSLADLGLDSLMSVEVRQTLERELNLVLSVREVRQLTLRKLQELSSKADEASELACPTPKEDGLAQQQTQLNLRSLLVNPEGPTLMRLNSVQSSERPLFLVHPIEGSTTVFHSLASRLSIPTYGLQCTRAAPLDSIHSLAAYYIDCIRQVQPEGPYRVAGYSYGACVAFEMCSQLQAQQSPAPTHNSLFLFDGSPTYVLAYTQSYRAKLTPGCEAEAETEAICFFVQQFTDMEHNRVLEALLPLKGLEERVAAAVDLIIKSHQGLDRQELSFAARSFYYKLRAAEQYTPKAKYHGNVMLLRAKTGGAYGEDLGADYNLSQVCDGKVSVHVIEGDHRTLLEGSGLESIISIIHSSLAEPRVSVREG
T8 sequence (P34972 whole entry): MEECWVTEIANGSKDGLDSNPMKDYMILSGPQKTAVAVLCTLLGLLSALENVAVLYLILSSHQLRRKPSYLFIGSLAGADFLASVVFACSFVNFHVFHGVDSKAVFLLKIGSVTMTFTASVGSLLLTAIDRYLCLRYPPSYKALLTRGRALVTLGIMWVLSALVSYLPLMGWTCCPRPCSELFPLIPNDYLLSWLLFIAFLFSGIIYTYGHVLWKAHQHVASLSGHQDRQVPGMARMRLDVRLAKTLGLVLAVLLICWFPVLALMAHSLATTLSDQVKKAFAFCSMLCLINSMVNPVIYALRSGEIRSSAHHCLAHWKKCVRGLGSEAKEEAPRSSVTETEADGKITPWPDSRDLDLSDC
T6 sequence (Q9HC97 whole entry): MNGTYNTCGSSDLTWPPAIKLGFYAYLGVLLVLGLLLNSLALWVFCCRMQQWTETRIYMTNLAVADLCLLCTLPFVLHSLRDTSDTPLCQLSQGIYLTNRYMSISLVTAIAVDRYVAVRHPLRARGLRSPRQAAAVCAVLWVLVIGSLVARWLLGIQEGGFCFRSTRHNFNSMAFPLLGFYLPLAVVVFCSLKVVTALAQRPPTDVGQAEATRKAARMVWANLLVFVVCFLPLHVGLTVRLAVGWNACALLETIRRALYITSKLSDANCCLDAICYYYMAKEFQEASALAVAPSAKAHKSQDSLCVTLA
T7 sequence (P21554 whole entry): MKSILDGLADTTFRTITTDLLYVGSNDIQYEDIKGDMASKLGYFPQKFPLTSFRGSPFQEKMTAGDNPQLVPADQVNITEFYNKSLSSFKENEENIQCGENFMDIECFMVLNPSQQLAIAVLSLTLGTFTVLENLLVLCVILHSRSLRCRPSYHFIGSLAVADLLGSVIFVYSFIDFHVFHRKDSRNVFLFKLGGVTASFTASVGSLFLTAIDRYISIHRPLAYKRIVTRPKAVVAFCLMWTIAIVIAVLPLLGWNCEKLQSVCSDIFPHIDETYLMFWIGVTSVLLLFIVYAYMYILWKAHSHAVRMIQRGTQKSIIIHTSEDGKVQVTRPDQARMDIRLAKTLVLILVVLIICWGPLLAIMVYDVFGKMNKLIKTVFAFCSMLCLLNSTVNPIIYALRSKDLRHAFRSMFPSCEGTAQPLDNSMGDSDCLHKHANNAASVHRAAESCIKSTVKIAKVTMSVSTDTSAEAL
T11 sequence (Q01196 whole entry, the tested form may be a part): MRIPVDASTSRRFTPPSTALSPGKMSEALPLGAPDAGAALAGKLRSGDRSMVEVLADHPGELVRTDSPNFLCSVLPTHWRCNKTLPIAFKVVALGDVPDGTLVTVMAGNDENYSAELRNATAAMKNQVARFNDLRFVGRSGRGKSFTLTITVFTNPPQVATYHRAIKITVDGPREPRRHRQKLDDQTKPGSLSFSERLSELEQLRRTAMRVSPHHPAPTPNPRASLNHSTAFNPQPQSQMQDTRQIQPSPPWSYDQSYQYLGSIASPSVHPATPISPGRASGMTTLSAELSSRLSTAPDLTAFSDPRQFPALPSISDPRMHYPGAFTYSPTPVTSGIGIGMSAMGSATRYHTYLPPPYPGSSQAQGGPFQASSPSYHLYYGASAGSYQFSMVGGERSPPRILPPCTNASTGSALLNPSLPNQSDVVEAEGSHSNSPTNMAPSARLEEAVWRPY
T11 sequence (Q13951 whole entry, the tested form may be a part): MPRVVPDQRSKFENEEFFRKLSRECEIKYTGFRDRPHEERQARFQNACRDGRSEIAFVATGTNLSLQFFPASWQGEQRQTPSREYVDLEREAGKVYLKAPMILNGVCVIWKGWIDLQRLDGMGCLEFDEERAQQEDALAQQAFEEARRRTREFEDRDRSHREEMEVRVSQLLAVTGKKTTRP

SMILES: Nc1c(S(=O)(=O)c2ccccc2)c2nc3ccccc3nc2n1/N=C/c1cccc(O)c1
- EC50 [1]: 7.72 µM (active)
- EC50 (Streptokinase A): 23.6 µM (active)
- EC50 [2]: 2.92 µM (active)
- EC50 [3]: 2.83 µM (active)
- EC50 (Streptococcus): 75.4 µM (active)
- Absolute IC50 (CHOP) [4]: 10 µM
- IC50 (Beta-galactosidase): > 80 µM (inactive)

SMILES: OC1CN=C2Sc3ccccc3N2C1 (stereo not drawn)
- EC50 [5]: > 100 µM (inactive)
- IC50 [6]: 15.1 µM (active)

SMILES: CCN1C(=O)/C(=C/c2ccc(N3CCCC3)cc2)NC1=S
- EC50 (Ion channel NompC): 1.28 µM (active)
- EC50 (Mucolipin-3): 2.43 µM (active)

SMILES: Cc1ccc(C(=O)NC(C)c2ccc(-n3ccnc3)cc2)cc1S(=O)(=O)N1CCOCC1 (stereo not drawn)
- IC50 (Bcl-2-related protein A1): > 20 µM (inactive)
- IC50 [7]: 17.3 µM (active)
- IC50 [8]: 11.5 µM (active)

SMILES: Cc1ccc(-n2cc3c(-c4ccccc4)nnc(C)c3n2)cc1
- EC50 [9]: > 32 µM (inactive)
- EC50 (Cannabinoid receptor 1 [10]): > 32 µM (inactive)
- IC50 [11]: > 32 µM (inactive)
- IC50 (Cannabinoid receptor 1 [12]): 8.66 µM (active)
- IC50 [13]: 6.89 µM (active)
- IC50 (Cannabinoid receptor 2 [14]): > 32 µM (inactive)
- EC50 (Cannabinoid receptor 2 [15]): > 32 µM (inactive)

SMILES: COC(=O)N1C(=O)[C@](c2ccc(OC)cc2)(C(C)C)N1C(=O)OC
- IC50 [16]: 0.069 µM (active)
- IC50 (Fatty acid synthase [17]): 3.86 µM (active)
- IC50 (Fatty acid synthase [18]): 2.06 µM (active)

SMILES: CC1=CC(c2ccc(Cl)cc2)N2NC(NS(=O)(=O)c3ccc(C)cc3)=NC2=N1 (stereo not drawn)
- IC50 (Aminopeptidase N): 104 µM (active)
- IC50 [19]: 23.6 µM (active)
- IC50 [20]: 31.5 µM (active)

SMILES: COC(=O)c1ccc(C(C(=O)NC2CCCCC2)N(CCN2CCOCC2)C(=O)Cc2cccs2)cc1 (stereo not drawn)
- IC50 (Coagulation factor XII): > 50 µM (inactive)

From ChEMBL document CHEMBL1201862, “PubChem BioAssay data set” (2004)
